Legend:
[1] = system: ISH467-N2C0 recombinant β-galactoside-α2,3-sialyltransferase; experiment: Acceptor substrate specificity of recombinant β-galactoside-α2,3-sialyltransferase (mono-, di-, trisaccharides); assay type: biochemical, Photobacterium phosphoreum
Source text: (§1) Cell homogenates prepared from E. coli cells introduced with the third clone of ISH467-N2C0, the first clone of ISH224-N1C0 and the first clone of FAJ-N1C0 were each purified by ion exchange chromatography and hydroxyapatite chromatography to give an electrophoretically single band. The thus purified β-galactoside-α2,3-sialyltransferases were used in the following experiment in order to examine the presence or absence of sialyltransferase activity toward various monosaccharides, disaccharides and trisaccharides.
(§2) A reaction solution (24 μl) was prepared to contain CMP-^14C-NeuAc-containing CMP-NeuAc as a glycosyl donor substrate ([…], final concentration in the reaction solution: […]), any of various glycosyl acceptor substrates dissolved in 20 mM cacodylate buffer (pH 5.0) (1 μmol, final concentration in the reaction solution: 42 mM), sialyltransferase (in an amount as indicated in the footnotes of the tables below) and NaCl (final concentration in the reaction solution: 500 mM), and reacted under conditions as indicated in the footnotes of the tables below. The monosaccharides used as glycosyl acceptor substrates were the following 10 types: methyl-α-D-galactopyranoside (Gal-α-OMe), methyl-(β-D-galactopyranoside (Gal-β-OMe), methyl-α-D-glucopyranoside (Glc-α-OMe), methyl-β-D-glucopyranoside (Glc-β-OMe), methyl-α-D-mannopyranoside (Man-α-OMe), methyl-β-D-mannopyranoside (Man-β-OMe), methyl-α-D-fucopyranoside (Fuc-α-OMe), methyl-β-D-fucopyranoside (Fuc-β-OMe), N-acetylgalactosamine (GalNAc), and N-acetylglucosamine ([…]). The disaccharides used were the following 5 types: lactose (Gal-β1,4-Glc), N-acetyllactosamine (Gal-β1,4-GlcNAc), methyl-β-D-galactopyranosyl-β1,3-N-acetylglucosaminide (Gal-β1,3-GlcNAc-β-OMe), methyl-α-D-galactopyranosyl-α1,3-galactopyranoside (Gal-α-1,3-Gal-α-OMe), and methyl-β-D-galactopyranosyl-β1,3-galactopyranoside (Gal-β1,3-Gal-β-OMe). The trisaccharide used was 2′-fucosyllactose (Fuc-α1,2-Galβ1,4-Glc). It should be noted that the final concentration was set to 8.4 mM for the sugar chains shown in Table 18, i.e., methyl-α-D-galactopyranosyl-α1,3-galactopyranoside (Gal-α1,3-Gal-α-OMe), methyl-β-D-galactopyranosyl-β1,3-galactopyranoside (Gal-β1,3-Gal-β-OMe) and 2′-fucosyllactose (Fuc-α1,2-Gal-β1,4-Glc).
(§3) After completion of the enzymatic reaction, 1.98 ml of 5 mM phosphate buffer (pH 6.8) was added to the reaction solution to stop the enzymatic reaction. Then, the enzymatic reaction solution was diluted with 5 mM phosphate buffer (pH 6.8) and applied in a volume of 2 ml to a AG1−×2 Resin (PO4^3− form, 0.2×2 cm) column. This column was prepared as follows: AG1-x 2 Resin (OH^− form, BIO-RAD) was suspended in 1 M phosphate buffer (pH 6.8), and after 30 minutes, the resin was washed with distilled water and then suspended in distilled water. The eluate (0 to 2 ml) from this column was measured for its radioactivity. The eluate from this column contains the unreacted glycosyl acceptor substrate and the ^14C-NeuAc (N-acetylneuraminic acid)-bound reaction product which was generated by the reaction, but unreacted CMP-14C-NeuAc is still retained on the column. Thus, the radioactivity of ^14C from each sialic acid-containing sugar chain generated as a result of the enzymatic reaction arises exclusively from the reaction product, so that the radioactivity of this fraction can be used to calculate the enzyme activity.
(§4) In the manner described above, the radioactivity of NeuAc transferred to each glycosyl acceptor substrate was measured to calculate the amount of transferred sialic acid.

[2] = system: FAJ-N1C0 recombinant β-galactoside-α2,3-sialyltransferase; experiment: Acceptor substrate specificity of recombinant β-galactoside-α2,3-sialyltransferase (mono-, disaccharides); assay type: biochemical, Vibrio sp.; design: FAJ-N1C0 Sialyltransferase activity Relative activity (%): tested at 42 mM; conditions: 20° C., 14 hours; for FAJ-N1C0 Sialyltransferase activity: Table 16: 1 μmol acceptor, pH 5.0, about 2.5 mU enzyme; for FAJ-N1C0 Sialyltransferase activity Relative activity (%): Table 16: activity toward lactose set to 100
Source text: as §1, §2, §3, §4

[3] = system: α2,3-sialyltransferase derived from strain JT-ISH-467; experiment: Sialic acid transfer to monosaccharides and disaccharides by partially purified α2,3-sialyltransferase (CMP-14C-NeuAc donor, radioactivity of column eluate); assay type: biochemical, Photobacterium phosphoreum; conditions: 25° C., 4 hours, acceptor 10 μmol (200 mM), CMP-14C-NeuAc 400 nmol, sialyltransferase 0.13 mU, NaCl 500 mM
Procedure: A cell homogenate prepared from the strain JT-ISH-467 was partially purified by ion exchange chromatography, hydroxyapatite chromatography, and gel filtration chromatography. The thus partially purified α2,3-sialyltransferase was used in the following experiment in order to confirm the transfer of sialic acid to various monosaccharides and disaccharides.
The enzymatic reaction was carried out at 25° C. for 4 hours in a reaction solution (24 μl) prepared to contain CMP-^14C-NeuAc as a glycosyl donor substrate (400 nmol (15600 cpm), final concentration in the reaction solution: 16.6 mM), any of various glycosyl acceptor substrates (10 μmol, final concentration in the reaction solution: 200 mM), sialyltransferase (0.13 mU) and NaCl (final concentration in the reaction solution: 500 mM). The monosaccharides and disaccharides used as glycosyl acceptor substrates were the following 6 substances: methyl-α-D-galactopyranoside (Gal-α-OMe), methyl-β-D-galactopyranoside (Gal-β-OMe), N-acetylgalactosamine (GalNAc), lactose (Gal-β1,4-Glc), N-acetyllactosamine (Gal-β1,4-GlcNAc), and methyl-β-D-galactopyranosyl-β-1,3-N-acetylglucosaminide (Gal-β1,3-GlcNAc-β-OMe).
as §3, with “AG1-×2” for “AG1−×2”, “AG1-×2” for “AG1-x 2”, “CMP-^14C-NeuAc” for “CMP-14C-NeuAc”
as §4

[4] = system: ISH224-N1C0 recombinant β-galactoside-α2,3-sialyltransferase; experiment: Acceptor substrate specificity of recombinant β-galactoside-α2,3-sialyltransferase (mono-, di-, trisaccharides); assay type: biochemical, Photobacterium sp.
Source text: as §1, §2, §3, §4

[5] = Table 16: 1 μmol acceptor, pH 5.0, about 2.5 mU enzyme, 20° C., 14 hours
[6] = Table 16: activity toward lactose set to 100, 20° C., 14 hours
[7] = Table 17: 1 μmol acceptor, pH 5.0, 2.3 mU per reaction, 30° C., 0.5 minutes or 2 minutes
[8] = Table 17: activity toward lactose set to 100, 30° C., 0.5 minutes or 2 minutes
[9] = Table 17: 1 μmol acceptor, pH 5.0, 1.0 mU per reaction, 30° C., 0.5 minutes or 2 minutes
[10] = Table 18: 0.2 μmol acceptor (8.4 mM), pH 5.0, 23 mU per reaction, 30° C., 2 minutes
[11] = Table 18: activity toward lactose set to 100, 0.2 μmol acceptor, 30° C., 2 minutes
[12] = Table 18: 0.2 μmol acceptor (8.4 mM), pH 5.0, 1.0 mU per reaction, 30° C., 2 minutes

| Structure (SMILES) | ISH467-N2C0 Sialyltransferase activity [1, 5] [nmol/min] | ISH467-N2C0 Sialyltransferase activity Relative activity (%) [1, 6] [%] | ISH467-N2C0 Sialyltransferase activity [1, 7] [nmol/min] | ISH467-N2C0 Sialyltransferase activity Relative activity (%) [1, 8] [%] | FAJ-N1C0 Sialyltransferase activity [2] [nmol/min] | FAJ-N1C0 Sialyltransferase activity Relative activity (%) [2] [%] | Amount of transferred sialic acid [3] | Amount of transferred sialic acid ([3]; listed as Gal-β1,4-GlcNAc) [nmol] | ISH224-N1C0 Sialyltransferase activity [4, 5] [nmol/min] | ISH224-N1C0 Sialyltransferase activity Relative activity (%) [4, 6] [%] | ISH224-N1C0 Sialyltransferase activity [4, 9] [nmol/min] | ISH224-N1C0 Sialyltransferase activity Relative activity (%) [4, 8] [%] | ISH467-N2C0 Sialyltransferase activity [1, 10] [nmol/min] | ISH467-N2C0 Sialyltransferase activity Relative activity (%) [1, 11] [%] | ISH224-N1C0 Sialyltransferase activity [4, 12] [nmol/min] | ISH224-N1C0 Sialyltransferase activity Relative activity (%) [4, 11] [%] |
| --- | --- | --- | --- | --- | --- | --- | --- | --- | --- | --- | --- | --- | --- | --- | --- | --- |
| CC(=O)N[C@H]1C(O)O[C@H](CO)[C@@H](O[C@@H]2O[C@H](CO)[C@H](O)[C@H](O)[C@H]2O)[C@@H]1O (stereo partly drawn) [Lactosamine, N-acetyllactosamine] | 9.2 | 118 | 2.36 | 103 | 9.6 | 127 | highest in amount of transferred sialic acid | 74.9 | 9.7 | 115 | 0.99 | 96 | – | – | – | – |
| CO[C@H]1O[C@H](C)[C@H](O)[C@H](O)[C@H]1O [Methylαfucopyranoside, methyl-α-D-fucopyranoside] | – | – | 1.13 | 49 | – | – | – | – | – | – | 0.70 | 68 | – | – | – | – |
| CO[C@H]1O[C@H](CO)[C@@H](O)[C@H](O)[C@H]1O [Methylαglucopyranoside, methyl-α-D-glucopyranoside] | 6.2 | 79 | 1.11 | 48 | 4.7 | 62 | – | – | 4.3 | 51 | 0.70 | 68 | – | – | – | – |
| CO[C@H]1O[C@H](CO)[C@@H](O)[C@H](O)[C@@H]1O [Methylαmannopyranoside, methyl-α-D-mannopyranoside] | 5.5 | 71 | 1.38 | 60 | 4.3 | 57 | – | – | 4.7 | 56 | 1.11 | 108 | – | – | – | – |
| CO[C@@H]1O[C@H](C)[C@H](O)[C@H](O)[C@H]1O [Methylβfucopyranoside, methyl-β-D-fucopyranoside] | – | – | 0.97 | 42 | – | – | – | – | – | – | 0.50 | 48 | – | – | – | – |
| CO[C@@H]1O[C@H](CO)[C@@H](O)[C@H](O)[C@H]1O [Methylβglucopyranoside, methyl-β-D-glucopyranoside] | 3.6 | 46 | 0.76 | 33 | 4.0 | 52 | – | – | 3.7 | 43 | 0.27 | 26 | – | – | – | – |
| CO[C@@H]1O[C@H](CO)[C@@H](O)[C@H](O)[C@@H]1O [Methylβmannopyranoside, methyl-β-D-mannopyranoside] | – | – | 1.45 | 63 | – | – | – | – | – | – | 1.03 | 100 | – | – | – | – |
| CC(=O)N[C@H]1C(O)O[C@H](CO)[C@@H](O)[C@@H]1O (stereo partly drawn) [N-Acetylglucosamine, N-acetylglucosamine] | 5.0 | 63 | 0.91 | 40 | 4.2 | 55 | – | – | 5.7 | 68 | 0.51 | 50 | – | – | – | – |
| CO[C@H]1O[C@H](CO)[C@H](O)[C@H](O[C@H]2O[C@H](CO)[C@H](O)[C@H](O)[C@H]2O)[C@H]1O [methyl-α-D-galactopyranosyl-α1,3-galactopyranoside] | – | – | – | – | – | – | – | – | – | – | – | – | 7.17 | 308 | 8.80 | 528 |
| CO[C@@H]1O[C@H](CO)[C@H](O)[C@H](O[C@@H]2O[C@H](CO)[C@H](O)[C@H](O)[C@H]2O)[C@H]1O [methyl-β-D-galactopyranosyl-β1,3-galactopyranoside] | – | – | – | – | – | – | – | – | – | – | – | – | 5.17 | 222 | 5.52 | 331 |

— patent publication US8030043B2, “β-galactoside-α2,3-sialyltransferase, a gene encoding thereof, and a method for producing thereof” (Japan Tobacco Inc., priority 2005, dated 2011)
